Measurements taken from patent US20260232767A1, “INTERLEUKIN-23 RECEPTOR ANTAGONIST PEPTIDES FOR USE IN THE TREATMENT OF PSORIASIS” (Janssen Pharmaceutica NV, priority 2023, published 2026).

System: subjects with moderate-to-severe plaque psoriasis
Experiment: Safety, adverse events, Example 2 through Week 56
Assay type: in vivo, human
Details: 100 mg BID
Excerpt: The LTE safety analysis was based on randomized participants in Example who entered the present long-term extension study and received at least one dose of study intervention (including a partial dose) during the study period.

CC(=O)NCCCC[C@@H]1NC(=O)[C@H](Cc2c[nH]c3c(C)cccc23)NC(=O)[C@H]([C@@H](C)O)NC(=O)[C@H](CC(N)=O)NC(=O)[C@@H](NC(C)=O)C(C)(C)SSC(C)(C)[C@@H](C(=O)N[C@@H](Cc2ccc(OCCN)cc2)C(=O)N[C@@H](Cc2ccc3ccccc3c2)C(=O)NC2(C(=O)N[C@@H](CCC(=O)O)C(=O)N[C@@H](CC(N)=O)C(=O)N[C@@H](Cc3cccnc3)C(=O)N(C)CC(N)=O)CCOCC2)NC1=O [IL-23 receptor antagonist peptide, Ac-[Pen]*-N-T-[W(7-Me)]-[Lys(Ac)]-[Pen]*-Phe[4-(2-aminoethoxy)]-[2-Nal]-[THP]-E-N-[3-Pal]-Sarc-NH2 (*[Pen]-[Pen]* formdisulfidebond)]
Subjects with treatment-emergent AE: Headache (Week 16-56): 0 | Subjects with treatment-emergent AE: Investigations (Week 16-56): 4 | Subjects with treatment-emergent AE: Meniscus injury (Week 16-56): 0 | Subjects with treatment-emergent AE: Sinusitis (Week 16-56): 0 | Subjects with treatment-emergent AE: Vomiting (Week 16-56): 0 | Subjects with treatment-emergent serious AE: Cardiac disorders (Week 16-56): 0 | Subjects with treatment-emergent serious AE: Cerebrovascular accident (Week 16-56): 0 | Subjects with treatment-emergent serious AE: Coronary artery disease (Week 16-56): 0 | Subjects with treatment-emergent serious AE: Diverticulitis (Week 16-56): 0 | Subjects with treatment-emergent serious AE: Foot deformity (Week 16-56): 0 | Subjects with treatment-emergent serious AE: General disorders and administration site conditions (Week 16-56): 0 | Subjects with treatment-emergent serious AE: Infections and infestations (Week 16-56): 0 | Subjects with treatment-emergent serious AE: Injury, poisoning and procedural complications (Week 16-56): 0 | Subjects with treatment-emergent serious AE: Intervertebral disc protrusion (Week 16-56): 0 | Subjects with treatment-emergent serious AE: Ligament injury (Week 16-56): 0 | Subjects with treatment-emergent serious AE: Musculoskeletal and connective tissue disorders (Week 16-56): 0 | Subjects with treatment-emergent serious AE: Nervous system disorders (Week 16-56): 0 | Subjects with treatment-emergent serious AE: Non-cardiac chest pain (Week 16-56): 0 | Subjects with treatment-emergent serious AE: Respiratory, thoracic and mediastinal disorders (Week 16-56): 0 | Subjects with treatment-emergent serious AE: Tonsillar hypertrophy (Week 16-56): 0 | Subjects with treatment-emergent serious AE: Ventricular dysfunction (Week 16-56): 0 | Acrochordon: number of subjects (through Week 56): 0 | Actinic keratosis: number of subjects (through Week 56): 0 | Alopecia: number of subjects (through Week 56): 0 | Asthenia: number of subjects (through Week 56): 0 | Asthma: number of subjects (through Week 56): 0 | Atrioventricular block first degree: number of subjects (through Week 56): 0 | Basal cell carcinoma: number of subjects (through Week 56): 0 | Blood and lymphatic system disorders: % of subjects (through Week 56): (2.4%) | Blood and lymphatic system disorders: number of subjects (through Week 56): 1 | Bronchitis chronic: number of subjects (through Week 56): 0 | Bundle branch block right: % of subjects (through Week 56): (2.4%) | Bundle branch block right: number of subjects (through Week 56): 1 | Cardiac disorders: % of subjects (through Week 56): (2.4%) | Cardiac disorders: number of subjects (through Week 56): 1 | Chills: number of subjects (through Week 56): 0 | Cholelithiasis: number of subjects (through Week 56): 0 | Chronic obstructive pulmonary disease: number of subjects (through Week 56): 0 | Coronary artery disease: number of subjects (through Week 56): 0 | Cough: % of subjects (through Week 56): (4.8%) | Cough: number of subjects (through Week 56): 2 | Decreased appetite: number of subjects (through Week 56): 0 | Depression: % of subjects (through Week 56): (2.4%) | Depression: number of subjects (through Week 56): 1 | Dermal cyst: number of subjects (through Week 56): 0 | Dermatitis acneiform: number of subjects (through Week 56): 0 | Dermatitis contact: % of subjects (through Week 56): (2.4%) | Dermatitis contact: number of subjects (through Week 56): 1 | Diabetes mellitus: number of subjects (through Week 56): 0 | Diffuse alopecia: number of subjects (through Week 56): 0 | Dysuria: number of subjects (through Week 56): 0 | Ear and labyrinth disorders: % of subjects (through Week 56): (2.4%) | Ear and labyrinth disorders: number of subjects (through Week 56): 1 | Endocrine disorders: number of subjects (through Week 56): 0 | Eye disorders: number of subjects (through Week 56): 0 | Eyelid skin dryness: number of subjects (through Week 56): 0 | Fatigue: % of subjects (through Week 56): (4.8%) | Fatigue: number of subjects (through Week 56): 2 | General disorders and administration site conditions: % of subjects (through Week 56): (9.5%) | General disorders and administration site conditions: number of subjects (through Week 56): 4 | Goiter: number of subjects (through Week 56): 0 | Haemochromatosis: number of subjects (through Week 56): 0 | Hand dermatitis: number of subjects (through Week 56): 0 | Hematuria: number of subjects (through Week 56): 0 | Hepatobiliary disorders: number of subjects (through Week 56): 0 | Hypercholesterolemia: number of subjects (through Week 56): 0 | Hyperglycemia: % of subjects (through Week 56): (4.8%) | Hyperglycemia: number of subjects (through Week 56): 2 | Hyperlipidemia: number of subjects (through Week 56): 0 | Hypertension: % of subjects (through Week 56): (4.8%) | Hypertension: number of subjects (through Week 56): 2 | Hypertransaminasemia: number of subjects (through Week 56): 0 | Hypertriglyceridemia: number of subjects (through Week 56): 0 | Hypoacusis: % of subjects (through Week 56): (2.4%) | Hypoacusis: number of subjects (through Week 56): 1 | Immune system disorders: % of subjects (through Week 56): (2.4%) | Immune system disorders: number of subjects (through Week 56): 1 | Influenza like illness: number of subjects (through Week 56): 0 | Insomnia: number of subjects (through Week 56): 0 | Intertrigo: % of subjects (through Week 56): (2.4%) | Intertrigo: number of subjects (through Week 56): 1 | Ketonuria: % of subjects (through Week 56): (2.4%) | Ketonuria: number of subjects (through Week 56): 1 | Leukocyturia: number of subjects (through Week 56): 0 | Leukopenia: number of subjects (through Week 56): 0 | Libido decreased: number of subjects (through Week 56): 0 | Liver disorder: number of subjects (through Week 56): 0 | Lymphopenia: number of subjects (through Week 56): 0 | Menopause: number of subjects (through Week 56): 0 | Metabolism and nutrition disorders: % of subjects (through Week 56): (4.8%) | Metabolism and nutrition disorders: number of subjects (through Week 56): 2 | Neoplasms benign, malignant and unspecified (incl cysts and polyps): % of subjects (through Week 56): (4.8%) | Neoplasms benign, malignant and unspecified (incl cysts and polyps): number of subjects (through Week 56): 2 | Nephrolithiasis: number of subjects (through Week 56): 0 | Neutropenia: number of subjects (through Week 56): 0 | Night sweats: number of subjects (through Week 56): 0 | Non-cardiac chest pain: number of subjects (through Week 56): 0 | Ocular cyst: number of subjects (through Week 56): 0 | Oedema peripheral: % of subjects (through Week 56): (4.8%) | Oedema peripheral: number of subjects (through Week 56): 2 | Oropharyngeal pain: number of subjects (through Week 56): 0 | Procedural pain: % of subjects (through Week 56): (2.4%) | Procedural pain: number of subjects (through Week 56): 1 | Productive cough: % of subjects (through Week 56): (2.4%) | Productive cough: number of subjects (through Week 56): 1 | Proteinuria: % of subjects (through Week 56): (2.4%) | Proteinuria: number of subjects (through Week 56): 1 | Pruritus: number of subjects (through Week 56): 0 | Psoriasis: % of subjects (through Week 56): (4.8%) | Psoriasis: number of subjects (through Week 56): 2 | Psychiatric disorders: % of subjects (through Week 56): (2.4%) | Psychiatric disorders: number of subjects (through Week 56): 1 | Pyrexia: % of subjects (through Week 56): (2.4%) | Pyrexia: number of subjects (through Week 56): 1 | Rash pruritic: number of subjects (through Week 56): 0 | Renal and urinary disorders: % of subjects (through Week 56): (4.8%) | Renal and urinary disorders: number of subjects (through Week 56): 2 | Renal mass: number of subjects (through Week 56): 0 | Respiratory, thoracic and mediastinal disorders: % of subjects (through Week 56): (9.5%) | Respiratory, thoracic and mediastinal disorders: number of subjects (through Week 56): 4 | Retinal vein occlusion: number of subjects (through Week 56): 0
